Assay results from ChEMBL document CHEMBL2429815, “Synthesis of 5-benzyl-4-aryl-octahydro-1H-benzo[b][1,5]diazepin-2-ones as potent antidepressant and antimicrobial agents” (Med Chem Res, 2013).

How the values were obtained:
[1] = test system: Rattus norvegicus; assay: Neurotoxicity in rat assessed as minimal motor impairment by measuring coordination time at 100 mg/kg, ip 30 mins prior to testing by rotarod method; type: toxicity, organism-based; parameters: dose 100 mg/kg, route intraperitoneal; details: in vivo, 0.5 h
[2] = test system: Escherichia coli; assay: Antibacterial activity against Escherichia coli ATCC 35218 assessed as growth inhibition at 10 ug/ml by disc diffusion method; type: functional; details: read-out: IZ
[3] = test system: Staphylococcus aureus; assay: Antibacterial activity against Staphylococcus aureus ATCC 6538 assessed as growth inhibition at 10 ug/ml by disc diffusion method; type: functional; details: read-out: IZ
[4] = test system: Pseudomonas aeruginosa; assay: Antibacterial activity against Pseudomonas aeruginosa ATCC 9027 assessed as growth inhibition at 10 ug/ml by disc diffusion method; type: functional; details: read-out: IZ
[5] = test system: Rattus norvegicus; assay: Antidepressant activity in Albino rat assessed as reduction in immobility duration at 20 mg/kg, ip measured during 5 mins by forced swim test relative to control; type: functional; parameters: scale not given: the % may be the effect or the level left; details: route intraperitoneal
[6] = test system: Bacillus subtilis; assay: Antibacterial activity against Bacillus subtilis ATCC […] assessed as growth inhibition at 10 ug/ml by disc diffusion method; type: functional; details: read-out: IZ

| SMILES | Time [1] | zone of inhibition at 10 µg/mL [2] | zone of inhibition at 10 µg/mL [3] | zone of inhibition at 10 µg/mL [4] | Activity [5] | zone of inhibition at 10 µg/mL [6] |
| --- | --- | --- | --- | --- | --- | --- |
| O=C1CC(c2ccccc2)N(Cc2ccccc2)C2CCCCC2N1 (configuration not stated) | 100.33 s | 5 mm | 9 mm | 6 mm | 81.56% | 6 mm |
| COc1ccc(C2CC(=O)NC3CCCCC3N2Cc2ccccc2)cc1OC (configuration not stated) | 96.5 s | 8 mm | 7 mm | 5 mm | 89.03% | 7 mm |
| O=C1CC(c2ccccc2Cl)N(Cc2ccccc2)C2CCCCC2N1 (configuration not stated) | 95.17 s | 4 mm | 8 mm | 9 mm | 78.23% | 4 mm |
| O=C1CC(c2ccccc2Br)N(Cc2ccccc2)C2CCCCC2N1 (configuration not stated) | 91.33 s | 6 mm | 15 mm | 5 mm | 71.1% | 6 mm |
| COc1ccc(C2CC(=O)NC3CCCCC3N2Cc2ccccc2)cc1 (configuration not stated) | 97.83 s | 5 mm | 12 mm | 7 mm | 86.4% | 3 mm |
| O=C1CC(c2cccc([N+](=O)[O-])c2)N(Cc2ccccc2)C2CCCCC2N1 (configuration not stated) | 92.34 s | 4 mm | 10 mm | 7 mm | 85.82% | 3 mm |
| O=C1CC(c2ccc(Br)cc2)N(Cc2ccccc2)C2CCCCC2N1 (configuration not stated) | 93.67 s | 5 mm | 10 mm | 8 mm | 85.82% | 5 mm |
| O=C1CC(c2coc3ccccc3c2=O)N(Cc2ccccc2)C2CCCCC2N1 (configuration not stated) | 97.17 s | 5 mm | 8 mm | 5 mm | 83.56% | 4 mm |
| O=C1CC(c2ccc(Cl)cc2)N(Cc2ccccc2)C2CCCCC2N1 (configuration not stated) | 90.83 s | 3 mm | 10 mm | 4 mm | 88.03% | 3 mm |
| CN(C)CCCN1c2ccccc2CCc2ccc(Cl)cc21 [CLOMIPRAMINE] | 110.83 s | – | – | – | 92.21% | – |
| O=C1CC(c2ccc([N+](=O)[O-])cc2)N(Cc2ccccc2)C2CCCCC2N1 (configuration not stated) | 93.5 s | 4 mm | 15 mm | 9 mm | 89.44% | 6 mm |
| O=C(O)c1cn(C2CC2)c2cc(N3CCNCC3)c(F)cc2c1=O [CIPROFLOXACIN] | – | 9 mm | 18 mm | 12 mm | – | 9 mm |
| O=C1CC(c2cc3ccccc3nc2Cl)N(Cc2ccccc2)C2CCCCC2N1 (configuration not stated) | 98.33 s | 6 mm | 13 mm | 6 mm | 85.27% | 6 mm |
